Key:
PAK2 = assay: KINOMEscan; format: binding; settings: 1000 nM
DCAMKL1 = assay: KINOMEscan; format: binding; settings: 1000 nM
PFTAIRE2 = assay: KINOMEscan; format: binding; settings: 1000 nM
468 kinases/mutants = assay: KINOMEscan kinome-wide selectivity profiling; format: binding; settings: 1 μM
From the text: Here, we report the discovery of a novel covalent BTK inhibitor, CHMFL-BTK-85 (abbreviated as compd. 85) (chemical structure shown in Fig. 1a), which achieves high potency against BTK and selectivity over other protein kinases. […] To further confirm that compd. 85 could covalently bind to wide-type native BTK in cell, we then conducted a target-engagement assay using the biotinylated analog of compd. 85, i.e., CHMFL-BTK-85B (Supplementary Fig. S2), in REC-1 cell which expresses native BTK kinase. […] To further investigate the selectivity of compd. 85 in the kinome, we then tested it among 468 kinases/mutants with KINOMEscan^TM technology.

AURKA = assay: KINOMEscan; format: binding; settings: 1000 nM
TNK1 = assay: KINOMEscan; format: binding; settings: 1000 nM
CSNK1E = assay: KINOMEscan; format: binding; settings: 1000 nM
JNK2 = assay: KINOMEscan; format: binding; settings: 1000 nM
SIK = assay: KINOMEscan; format: binding; settings: 1000 nM
PDPK1 = assay: KINOMEscan; format: binding; settings: 1000 nM
ERK5 = assay: KINOMEscan; format: binding; settings: 1000 nM
NEK7 = assay: KINOMEscan; format: binding; settings: 1000 nM
[1] = test system: JAK2(JH1domain-catalytic); assay: KINOMEscan; format: binding; settings: 1000 nM
SYK = assay: KINOMEscan; format: binding; settings: 1000 nM
DYRK1A = assay: KINOMEscan; format: binding; settings: 1000 nM
BMPR1B = assay: KINOMEscan; format: binding; settings: 1000 nM
ULK1 = assay: KINOMEscan; format: binding; settings: 1000 nM
MLK1 = assay: KINOMEscan; format: binding; settings: 1000 nM
TLK2 = assay: KINOMEscan; format: binding; settings: 1000 nM
[2] = test system: TYK2(JH1domain-catalytic); assay: KINOMEscan; format: binding; settings: 1000 nM
SGK2 = assay: KINOMEscan; format: binding; settings: 1000 nM
HUNK = assay: KINOMEscan; format: binding; settings: 1000 nM
PKAC-beta = assay: KINOMEscan; format: binding; settings: 1000 nM
NLK = assay: KINOMEscan; format: binding; settings: 1000 nM
DAPK1 = assay: KINOMEscan; format: binding; settings: 1000 nM
EPHA8 = assay: KINOMEscan; format: binding; settings: 1000 nM
FGFR2 = assay: KINOMEscan; format: binding; settings: 1000 nM
PAK7 = assay: KINOMEscan; format: binding; settings: 1000 nM
HIPK2 = assay: KINOMEscan; format: binding; settings: 1000 nM
VEGFR2 = assay: KINOMEscan; format: binding; settings: 1000 nM
CLK1 = assay: KINOMEscan; format: binding; settings: 1000 nM
MRCKB = assay: KINOMEscan; format: binding; settings: 1000 nM
PIK3CA(C420R) = assay: KINOMEscan; format: binding; settings: 1000 nM
MEK2 = assay: KINOMEscan; format: binding; settings: 1000 nM
CHEK2 = assay: KINOMEscan; format: binding; settings: 1000 nM
EPHB1 = assay: KINOMEscan; format: binding; settings: 1000 nM
QSK = assay: KINOMEscan; format: binding; settings: 1000 nM
CAMK1 = assay: KINOMEscan; format: binding; settings: 1000 nM
HCK = assay: KINOMEscan; format: binding; settings: 1000 nM
SNRK = assay: KINOMEscan; format: binding; settings: 1000 nM
Pfeiffer = assay: anti-proliferative CellTiter-Glo assay; format: cell-based; settings: Homo sapiens, 72 h
Method: (§1) Cell viability was measured using the CellTiter–Glo assay (Promega, USA) according to the manufacturer’s instructions, and […] was measured in a Bio-red Microplate reader (Bio-Red, USA).

DOHH2 = assay: anti-proliferative CellTiter-Glo assay; format: cell-based; settings: Homo sapiens, DOHH-2; DOHH2, 72 h
Method: as §1

SU-DHL-6 = assay: anti-proliferative CellTiter-Glo assay; format: cell-based; settings: Homo sapiens, SU-DHL-6, 72 h
Method: as §1

JEKO-1 = assay: anti-proliferative CellTiter-Glo assay; format: cell-based; settings: Homo sapiens, JeKo-1, 72 h
Method: as §1

TMD8 = assay: anti-proliferative CellTiter-Glo assay; format: cell-based; settings: Homo sapiens, TMD8, 72 h
Method: as §1

Raji = assay: anti-proliferative CellTiter-Glo assay; format: cell-based; settings: Homo sapiens, 72 h
Method: as §1

REC-1 = assay: anti-proliferative CellTiter-Glo assay; format: cell-based; settings: Homo sapiens, Rec1; REC-1, 72 h
Method: as §1

SU-DHL-2 = assay: anti-proliferative CellTiter-Glo assay; format: cell-based; settings: Homo sapiens, SU-DHL-2, 72 h
Method: as §1

U2932 = assay: anti-proliferative CellTiter-Glo assay; format: cell-based; settings: Homo sapiens, U2932, 72 h
Method: as §1

WSU-DLCL2 = assay: anti-proliferative CellTiter-Glo assay; format: cell-based; settings: Homo sapiens, WSUDLCL2; WSU-DLCL2, 72 h
Method: as §1

Ramos = assay: anti-proliferative CellTiter-Glo assay; format: cell-based; settings: Homo sapiens, 72 h
Method: as §1

## C=CC(=O)Nc1cc(Nc2cc(-c3cccc(NC(=O)c4cc5c(s4)CCCC5)c3C)cn(C)c2=O)ccc1N1CCN(CC)CC1 [CHMFL-BTK-85]
PAK2
  Percent Control: 100%
DCAMKL1
  Percent Control: 100%
PFTAIRE2
  Percent Control: 99%
468 kinases/mutants
  S Score (1): 0.00
AURKA
  Percent Control: 92%
TNK1
  Percent Control: 75%
CSNK1E
  Percent Control: 95%
JNK2
  Percent Control: 100%
SIK
  Percent Control: 99%
PDPK1
  Percent Control: 77%
ERK5
  Percent Control: 100%
NEK7
  Percent Control: 96%
[1]
  Percent Control: 100%
SYK
  Percent Control: 100%
DYRK1A
  Percent Control: 100%
BMPR1B
  Percent Control: 100%
ULK1
  Percent Control: 100%
MLK1
  Percent Control: 81%
TLK2
  Percent Control: 100%
[2]
  Percent Control: 100%
SGK2
  Percent Control: 100%
HUNK
  Percent Control: 100%
PKAC-beta
  Percent Control: 80%
NLK
  Percent Control: 100%
DAPK1
  Percent Control: 98%
EPHA8
  Percent Control: 91%
FGFR2
  Percent Control: 77%
PAK7
  Percent Control: 82%
HIPK2
  Percent Control: 100%
VEGFR2
  Percent Control: 99%
CLK1
  Percent Control: 88%
MRCKB
  Percent Control: 75%
PIK3CA(C420R)
  Percent Control: 98%
MEK2
  Percent Control: 100%
CHEK2
  Percent Control: 94%
EPHB1
  Percent Control: 100%
QSK
  Percent Control: 100%
CAMK1
  Percent Control: 100%
HCK
  Percent Control: 100%
SNRK
  Percent Control: 86%
Pfeiffer
  GI50: 290 ± 140 nM
DOHH2
  GI50: 700 ± 150 nM
SU-DHL-6
  GI50: 970 ± 220 nM
JEKO-1
  GI50: 1100 ± 240 nM
TMD8
  GI50: 17 ± 4 nM
Raji
  GI50: 1500 ± 58 nM
REC-1
  GI50: 28 ± 7 nM
SU-DHL-2
  GI50: 570 ± 350 nM
U2932
  GI50: 800 ± 96 nM
WSU-DLCL2
  GI50: 1400 ± 210 nM
Ramos
  GI50: 1300 ± 100 nM
